Experimental data reported in patent US20230085307A1, “PYRIDAZINONE COMPOUND AND HERBICIDE” (NISSAN CHEMICAL CORPORATION, priority 2019, published 2023).

Tests used:
false cleavers = test: Test Example 4: herbicidal effect by soil treatment (Table 19, symbol Q); type: in vivo, false cleavers (Galium spurium); details: amount of applied herbicide 320 g/ha
Method in brief: (§1)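 Soil-surface application: an emulsion agent diluted with water to the predetermined dose is sprayed uniformly over seeds lying under roughly 1.5 cm of sterilized diluvial soil. Boxes stay in a greenhouse at 25° C. to 30° C. Three weeks later, each species is graded on previously defined criteria.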

rice flat sedge = test: Test Example 3: herbicidal effect by foliage application, Wagner pot (Table 18, symbol E); type: in vivo, rice flat sedge (Cyperus iria); details: 320 g/ha
Method in brief: (§2)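 Plants were sown in alluvial soil held under 0.1–0.5 cm standing water and grown 14 days in a greenhouse at 25–30 °C. An emulsifiable formulation, water-diluted to the set dose, was then sprayed onto the foliage, and effects were scored three weeks later using previously defined criteria.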

southern crabgrass [1] = test: Test Example 4: herbicidal effect by soil treatment (Table 19, symbol F); type: in vivo, southern crabgrass (Digitaria ciliaris); details: amount of applied herbicide 320 g/ha
Method in brief: as §1

oval-leafed pondweed [2] = test: Test Example 2: herbicidal activity, application during weed generation under submerged conditions (Table 17, symbol C); type: in vivo, oval-leafed pondweed (Monochoria vaginalis); details: AAH 320 g/ha; application during weed generation, submerged conditions
Method in brief: (§3)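 Mixed weed seedlings in alluvial soil under a 4 cm water layer, greenhouse-grown at 25–30° C. Compound given as a diluted emulsion into the floodwater at the 1–2 leaf stage; response graded after three weeks.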

barnyard grass [3] = test: Test Example 3: herbicidal effect by foliage application, Wagner pot (Table 18, symbol H); type: in vivo, barnyard grass (Echinochloa crus-galli); details: 320 g/ha
Method in brief: as §2

redroot pigweed = test: Test Example 4: herbicidal effect by soil treatment (Table 19, symbol N); type: in vivo, redroot pigweed (Amaranthus retroflexus); details: amount of applied herbicide 320 g/ha
Method in brief: as §1

blackgrass [4] = test: Test Example 4: herbicidal effect by soil treatment (Table 19, symbol J); type: in vivo, blackgrass (Alopecurus myosuroides); details: amount of applied herbicide 320 g/ha
Method in brief: as §1

persian speedwell = test: Test Example 4: herbicidal effect by soil treatment (Table 19, symbol R); type: in vivo, Persian speedwell (Veronica persica); details: amount of applied herbicide 320 g/ha
Method in brief: as §1

chickweed = test: Test Example 5: herbicidal effect by foliage application, plastic box (Table 20, symbol P); type: in vivo, common chickweed (Stellaria media); details: for P: chickweed, herbicidal effect grade: foliage application, three weeks after application
Method in brief: (§4)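 Sow seeds spot-wise in sterilized diluvial soil; cover with ~1.5 cm soil. Grow 14 days in greenhouse, 25° C. to 30° C. Spray foliage with emulsion diluted to predetermined amount. Rate effect after 3 weeks.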

southern crabgrass [5] = test: Test Example 5: herbicidal effect by foliage application, plastic box (Table 20, symbol F); type: in vivo, southern crabgrass (Digitaria ciliaris); details: for F: southern crabgrass, herbicidal effect grade: foliage application, three weeks after application
Method in brief: as §4

Japanese bulrush = test: Test Example 1: herbicidal activity, application before weed generation under submerged conditions (Table 16, symbol B); type: in vivo, Japanese bulrush (Schoenoplectus juncoides); details: amount of applied herbicide 320 g/ha
Method in brief: (§5)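 Alluvial soil was flooded to 4 cm depth, weed seeds were sown mixed and 2.5-leaf rice seedlings were transplanted. On sowing day, the compound's emulsion, diluted in water to a set dose, was applied to the water surface. Plants grew at 25–30 °C and were scored 0–5 after three weeks.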

blackgrass [6] = test: Test Example 5: herbicidal effect by foliage application, plastic box (Table 20, symbol J); type: in vivo, blackgrass (Alopecurus myosuroides); details: for J: blackgrass, herbicidal effect grade: foliage application, three weeks after application
Method in brief: as §4

Italian ryegrass = test: Test Example 5: herbicidal effect by foliage application, plastic box (Table 20, symbol K); type: in vivo, Italian ryegrass (Lolium multiflorum); details: for K: Italian ryegrass, herbicidal effect grade: foliage application, three weeks after application
Method in brief: as §4

late watergrass = test: Test Example 2: herbicidal activity, application during weed generation under submerged conditions (Table 17, symbol A); type: in vivo, late watergrass (Echinochloa oryzicola); details: AAH 320 g/ha; application during weed generation, submerged conditions
Method in brief: as §3

barnyard grass [7] = test: Test Example 5: herbicidal effect by foliage application, plastic box (Table 20, symbol H); type: in vivo, barnyard grass (Echinochloa crus-galli); details: for H: barnyard grass, herbicidal effect grade: foliage application, three weeks after application
Method in brief: as §4

velvetleaf = test: Test Example 4: herbicidal effect by soil treatment (Table 19, symbol M); type: in vivo, velvetleaf (Abutilon theophrasti); details: amount of applied herbicide 320 g/ha
Method in brief: as §1

oval-leafed pondweed [8] = test: Test Example 1: herbicidal activity, application before weed generation under submerged conditions (Table 16, symbol C); type: in vivo, oval-leafed pondweed (Monochoria vaginalis); details: amount of applied herbicide 320 g/ha
Method in brief: as §5

[9] = 320 g/ha, foliage application after 14-day growth, evaluated three weeks after application
[10] = amount of applied herbicide 320 g/ha, foliage application after 14-day growth, evaluated three weeks after application

Structure (SMILES) | Q: false cleavers, herbicidal effect grade (false cleavers) | herbicidal effect on rice flat sedge (E) (rice flat sedge) | F: southern crabgrass, herbicidal effect grade (southern crabgrass [1]) | herbicidal effect rating, C: oval-leafed pondweed (oval-leafed pondweed [2]) | herbicidal effect on barnyard grass (H) (barnyard grass [3]) | N: redroot pigweed, herbicidal effect grade (redroot pigweed) | J: blackgrass, herbicidal effect grade (blackgrass [4]) | R: persian speedwell, herbicidal effect grade (persian speedwell) | P: chickweed, herbicidal effect grade (chickweed; 320 g/ha) | F: southern crabgrass, herbicidal effect grade (southern crabgrass [5]; 320 g/ha) | Herbicidal effect, B: Japanese bulrush (Japanese bulrush) | J: blackgrass, herbicidal effect grade (blackgrass [6]; 320 g/ha) | K: Italian ryegrass, herbicidal effect grade (Italian ryegrass; 320 g/ha) | herbicidal effect rating, A: late watergrass (late watergrass) | H: barnyard grass, herbicidal effect grade (barnyard grass [7]; 320 g/ha) | M: velvetleaf, herbicidal effect grade (velvetleaf) | Herbicidal effect, C: oval-leafed pondweed (oval-leafed pondweed [8]) | Herbicidal effect by soil treatment, Q: false cleavers (false cleavers) | Herbicidal effect by soil treatment, F: southern crabgrass (southern crabgrass [1]) | Herbicidal effect by soil treatment, N: redroot pigweed (redroot pigweed) | further results
CCCC(=O)Oc1c(C)nn(C)c(=O)c1-c1c(-c2ccc(OC)cc2)sc2cc(OCC)ccc12 [3-092] | 4 (Herbicidal rate of 70% or more and less than 90%) | 4 (Herbicidal rate of 70% or more and less than 90%) | 3 (Herbicidal rate of 40% or more and less than 70%) | 3 (Herbicidal rate of 40% or more and less than 70%) | 0 (Herbicidal rate of 5% or less (almost no effect)) | 3 (Herbicidal rate of 40% or more and less than 70%) | 0 (Herbicidal rate of 5% or less (almost no effect)) | 5 (Herbicidal rate of 90% or more (almost completely withered)) | 5 (Herbicidal rate of 90% or more (almost completely withered)) | 0 (Herbicidal rate of 5% or less (almost no effect)) | 3 (Herbicidal rate of 40% or more and less than 70%) | 0 (Herbicidal rate of 5% or less (almost no effect)) | 0 (Herbicidal rate of 5% or less (almost no effect)) | 0 (Herbicidal rate of 5% or less (almost no effect)) | 0 (Herbicidal rate of 5% or less (almost no effect)) | 0 (Herbicidal rate of 5% or less (almost no effect)) | 3 (Herbicidal rate of 40% or more and less than 70%) | – | – | – | –
CCOc1ccc2c(-c3c(O)c(C)nn(C)c3=O)c(-c3ccc(F)cc3OCC)sc2c1 [3-095] | 4 (Herbicidal rate of 70% or more and less than 90%) | 5 (Herbicidal rate of 90% or more (almost completely withered)) | 4 (Herbicidal rate of 70% or more and less than 90%) | 5 (Herbicidal rate of 90% or more (almost completely withered)) | 5 (Herbicidal rate of 90% or more (almost completely withered)) | 5 (Herbicidal rate of 90% or more (almost completely withered)) | 4 (Herbicidal rate of 70% or more and less than 90%) | 5 (Herbicidal rate of 90% or more (almost completely withered)) | 5 (Herbicidal rate of 90% or more (almost completely withered)) | 5 (Herbicidal rate of 90% or more (almost completely withered)) | 5 (Herbicidal rate of 90% or more (almost completely withered)) | 4 (Herbicidal rate of 70% or more and less than 90%) | 5 (Herbicidal rate of 90% or more (almost completely withered)) | 4 (Herbicidal rate of 70% or more and less than 90%) | 5 (Herbicidal rate of 90% or more (almost completely withered)) | 3 (Herbicidal rate of 40% or more and less than 70%) | 5 (Herbicidal rate of 90% or more (almost completely withered)) | – | – | – | –
Cc1nn(C)c(=O)c(-c2c(-c3ccc(Cl)c(F)c3)sc3c(F)cccc23)c1O [4-054] | – | 0 (Herbicidal rate of 5% or less (almost no effect)) | – | 0 (Herbicidal rate of 5% or less (almost no effect)) | 2 (Herbicidal rate of 20% or more and less than 40%) | – | – | – | – | – | 3 (Herbicidal rate of 40% or more and less than 70%) | – | – | 2 (Herbicidal rate of 20% or more and less than 40%) | – | – | 0 (Herbicidal rate of 5% or less (almost no effect)) | 0 (Herbicidal rate of 5% or less (almost no effect)) | 0 (Herbicidal rate of 5% or less (almost no effect)) | 2 (Herbicidal rate of 20% or more and less than 40%) | Herbicidal effect by soil treatment, J: blackgrass (blackgrass [4]): 0 (Herbicidal rate of 5% or less (almost no effect)); Herbicidal effect by soil treatment, R: persian speedwell (persian speedwell): 4 (Herbicidal rate of 70% or more and less than 90%); herbicidal effect on P: chickweed (evaluation grade 0-5) (chickweed; [9]): 5 (Herbicidal rate of 90% or more (almost completely withered)); herbicidal effect on F: southern crabgrass (evaluation grade 0-5) (southern crabgrass [5]; [9]): 2 (Herbicidal rate of 20% or more and less than 40%); herbicidal effect on J: blackgrass (evaluation grade 0-5) (blackgrass [6]; [9]): 0 (Herbicidal rate of 5% or less (almost no effect)); herbicidal effect on K: Italian ryegrass (evaluation grade 0-5) (Italian ryegrass; [9]): 1 (Herbicidal rate of 5% or more and less than 20%); herbicidal effect on H: barnyard grass (evaluation grade 0-5) (barnyard grass [7]; [9]): 4 (Herbicidal rate of 70% or more and less than 90%); Herbicidal effect by soil treatment, M: velvetleaf (velvetleaf): 0 (Herbicidal rate of 5% or less (almost no effect))
Cc1nn(C)c(=O)c(-c2c(-c3ccc(Cl)cc3)sc3c(C)cccc23)c1O [4-102] | – | 5 (Herbicidal rate of 90% or more (almost completely withered)) | – | 0 (Herbicidal rate of 5% or less (almost no effect)) | 1 (Herbicidal rate of 5% or more and less than 20%) | – | – | – | – | – | 0 (Herbicidal rate of 5% or less (almost no effect)) | – | – | 2 (Herbicidal rate of 20% or more and less than 40%) | – | – | 0 (Herbicidal rate of 5% or less (almost no effect)) | 0 (Herbicidal rate of 5% or less (almost no effect)) | 0 (Herbicidal rate of 5% or less (almost no effect)) | 4 (Herbicidal rate of 70% or more and less than 90%) | Herbicidal effect by soil treatment, J: blackgrass (blackgrass [4]): 0 (Herbicidal rate of 5% or less (almost no effect)); Herbicidal effect by soil treatment, R: persian speedwell (persian speedwell): 0 (Herbicidal rate of 5% or less (almost no effect)); Herbicidal effect by foliage application, P: chickweed (chickweed; [10]): 5 (Herbicidal rate of 90% or more (almost completely withered)); Herbicidal effect by foliage application, F: southern crabgrass (southern crabgrass [5]; [10]): 0 (Herbicidal rate of 5% or less (almost no effect)); Herbicidal effect by foliage application, J: blackgrass (blackgrass [6]; [10]): 0 (Herbicidal rate of 5% or less (almost no effect)); Herbicidal effect by foliage application, K: Italian ryegrass (Italian ryegrass; [10]): 4 (Herbicidal rate of 70% or more and less than 90%); Herbicidal effect by foliage application, H: barnyard grass (barnyard grass [7]; [10]): 0 (Herbicidal rate of 5% or less (almost no effect)); Herbicidal effect by soil treatment, M: velvetleaf (velvetleaf): 2 (Herbicidal rate of 20% or more and less than 40%)
